From ChEMBL document CHEMBL3860104, “Fragment-Based Approach to the Development of an Orally Bioavailable Lactam Inhibitor of Lipoprotein-Associated Phospholipase A2 (Lp-PLA2)” (J Med Chem, 2016)
≈ marks a conversion by molar mass, not a printed value.

How the values were obtained:
[1] = biological target: T1, Platelet-activating factor acetylhydrolase (Homo sapiens, UniProt Q13093)
T1 sequence (Q13093 whole entry): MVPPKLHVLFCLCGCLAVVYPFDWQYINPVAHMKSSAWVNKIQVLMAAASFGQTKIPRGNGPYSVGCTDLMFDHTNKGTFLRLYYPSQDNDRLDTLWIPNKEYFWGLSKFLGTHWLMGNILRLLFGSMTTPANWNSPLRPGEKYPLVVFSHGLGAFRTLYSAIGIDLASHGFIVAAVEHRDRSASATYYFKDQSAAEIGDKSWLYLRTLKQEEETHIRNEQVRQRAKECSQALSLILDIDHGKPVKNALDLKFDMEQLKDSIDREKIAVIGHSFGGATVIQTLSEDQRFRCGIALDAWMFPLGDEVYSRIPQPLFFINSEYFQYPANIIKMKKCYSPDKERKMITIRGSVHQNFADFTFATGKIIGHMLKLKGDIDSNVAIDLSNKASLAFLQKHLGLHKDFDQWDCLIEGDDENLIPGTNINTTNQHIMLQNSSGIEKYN
Description: Inhibition of recombinant human Lp-PLA2 pre-incubated for 30 mins before PED6 fluorogenic substrate

[2] = Solubility in pH 7.4 PBS by CLND assay
[3] = Lipophilicity, log D of the compound by chromatography; assay type: physicochemical
[4] = biological target: T1, Platelet-activating factor acetylhydrolase; remark: listed apart in the source
Description: Inhibition of Lp-PLA2 in whole human plasma pre-incubated for 15 mins before 2-thio-PAF substrate addition

[5] = biological target: T1, Platelet-activating factor acetylhydrolase; remark: listed apart in the source
Description: Inhibition of recombinant human Lp-PLA2 incubated for 20 mins by Thio-PAF assay

[6] = Solubility of the compound by quantitative NMR method; assay type: physicochemical
[7] = Protein binding in rat plasma at 10 uM incubated for 4 hrs by LC/MS-MS based rapid equilibrium dialysis method; assay type: ADME, cell-free; details: read-out: PPB (converted)
[8] = Protein binding in dog plasma at 10 uM incubated for 4 hrs by LC/MS-MS based rapid equilibrium dialysis method; assay type: ADME, cell-free, Canis lupus familiaris; details: read-out: PPB (converted)
[9] = biological target: Cytochrome P450 3A4 (Homo sapiens, UniProt P08684); experiment: Inhibition of CYP3A4 (unknown origin) expressed in Escherichia coli co-expressing human NADPH reductase using both 7-benzyloxyquinolone and diethoxyfluorescein substrate in presence of NADPH regenerating system incubated for 10 mins by spectrofluorometry; assay type: ADME
Sequence of Cytochrome P450 3A4 (P08684 whole entry): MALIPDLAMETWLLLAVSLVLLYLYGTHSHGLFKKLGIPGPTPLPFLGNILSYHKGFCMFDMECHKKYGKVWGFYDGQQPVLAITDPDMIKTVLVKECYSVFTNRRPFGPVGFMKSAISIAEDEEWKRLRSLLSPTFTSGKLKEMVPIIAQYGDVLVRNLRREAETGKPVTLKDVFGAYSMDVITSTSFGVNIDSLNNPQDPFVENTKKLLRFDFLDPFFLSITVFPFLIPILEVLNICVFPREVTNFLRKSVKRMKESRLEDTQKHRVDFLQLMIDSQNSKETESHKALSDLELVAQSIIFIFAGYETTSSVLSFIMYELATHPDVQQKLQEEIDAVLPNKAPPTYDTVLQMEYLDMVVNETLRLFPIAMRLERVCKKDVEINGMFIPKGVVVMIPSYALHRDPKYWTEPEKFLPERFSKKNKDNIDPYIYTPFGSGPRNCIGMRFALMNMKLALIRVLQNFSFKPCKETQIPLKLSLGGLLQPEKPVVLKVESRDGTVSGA

[10] = Permeability at pH 7.4 by PAMPA method; assay type: ADME; details: read-out: permeability
[11] = Intrinsic clearance rat liver microsomes at 30 ug/mL pre-incubated for 7 mins before NADPH addition by LC/MS-MS method; assay type: ADME
[12] = Clearance in Han Wistar rat at 1 mg/kg, iv or 3 mg/kg, po administered as bolus dose by LC/MS-MS method; assay type: ADME, organism-based; details: in vivo
[13] = Half life in Han Wistar rat at 1 mg/kg, iv or 3 mg/kg, po administered as bolus dose by LC/MS-MS method; assay type: ADME, organism-based; details: in vivo
[14] = Volume of distribution at steady state in Han Wistar rat at 1 mg/kg, iv or 3 mg/kg, po administered as bolus dose by LC/MS-MS method; assay type: ADME, organism-based; details: in vivo, read-out: Vdss
[15] = Clearance in Beagle dog at 0.5/1 mg/kg, iv or 0.5 mg/kg, po by LC/MS-MS method; assay type: ADME, organism-based, Canis lupus familiaris; details: in vivo
[16] = Half life in Beagle dog at 0.5/1 mg/kg, iv or 0.5 mg/kg, po by LC/MS-MS method; assay type: ADME, organism-based, Canis lupus familiaris; details: in vivo
[17] = Volume of distribution at steady state in Beagle dog at 0.5/1 mg/kg, iv or 0.5 mg/kg, po by LC/MS-MS method; assay type: ADME, organism-based, Canis lupus familiaris; details: in vivo, read-out: Vdss
[18] = Stability in rat blood assessed as compound remaining level; assay type: ADME, tissue-based
[19] = Oral bioavailability in Han Wistar rat at 3 mg/kg administered as bolus dose by LC/MS-MS method; assay type: ADME, organism-based; details: in vivo
[20] = Oral bioavailability in Beagle dog at 0.5 mg/kg by LC/MS-MS method; assay type: ADME, organism-based, Canis lupus familiaris; details: in vivo

## CC1(C)CN(CCOc2ccc(F)cc2)C(=O)N1
[1]
  IC50: 39 µM

## O=C1NC2(CCCCC2)C(=O)N1CCOc1ccc(F)cc1
[1]
  IC50: 14 µM

## CCN(CC)CCN(Cc1ccc(-c2ccc(C(F)(F)F)cc2)cc1)C(=O)Cn1c(SCc2ccc(F)cc2)nc(=O)c2c1CCC2 [DARAPLADIB]
[2]
  solubility kinetic: 8 µM (≈ 5.33 µg/mL)
[3]
  chromatographic logD: 6.3

## CC(=O)N1CCC(C)(C2CC(=O)N(CCOc3ccc(F)c(C#N)c3)C2)CC1 (racemic)
[3]
  chromatographic logD: 2.9
[4]
  IC50: 0.66 µM
[1]
  IC50: 0.25 µM

## CC1(C)CC(=O)N(CCOc2ccc(F)c(C#N)c2)C1
[5]
  IC50: 15 µM
[1]
  IC50: 3 µM

## CC1(C2CC(=O)N(CCOc3ccc(F)c(C#N)c3)C2)CCNCC1 (racemic; form 1)
[3]
  chromatographic logD: 1.5

## CC(C)[C@@]1(C)CC(=O)N(CCOc2ccc(F)c(C#N)c2)C1
[4]
  IC50: 13 µM
[5]
  IC50: 5.4 µM

## CN1CC(=O)N(CCOc2ccccc2)C1=O
[1]
  IC50: 1000 µM

## C[C@@]1(c2ccccc2)CC(=O)N(CCOc2ccc(F)c(C#N)c2)C1
[5]
  IC50: 1.6 µM

## CC(C)[C@]1(C)CC(=O)N(CCOc2ccc(F)c(C#N)c2)C1
[4]
  IC50: 6.2 µM
[5]
  IC50: 2.3 µM

## CC(C)(C)C1CC(=O)N(CCOc2ccc(F)c(C#N)c2)C1 (racemic)
[4]
  IC50: 5.1 µM
[5]
  IC50: 0.98 µM

## CC1(C2CC(=O)N(CCOc3ccc(F)cc3)C2)CCS(=O)(=O)CC1 (racemic)
[3]
  chromatographic logD: 3.1
[4]
  IC50: 1.5 µM
[1]
  IC50: 0.76 µM

## CC1(C)CC(=O)N(CCOc2ccc(F)cc2)C1
[1]
  IC50: 11 µM

## CC1([C@@H]2CC(=O)N(CCOc3ccc(F)c(C#N)c3)C2)CCS(=O)(=O)CC1
[2]
  solubility kinetic: > 509 µM
[6]
  solubility: 3500 µM (≈ 1380 µg/mL)
[3]
  chromatographic logD: 3
[7]
  fraction unbound at 4 h, 10 µM: 0.8
[8]
  fraction unbound at 4 h, 10 µM: 0.75
[9]
  IC50: > 50 µM
[10]
  Papp: 3.6 ×10⁻⁶ cm/s
[11]
  CLH: 1.1 mL/min/g
[12]
  clearance: 67 mL/min/kg
[13]
  half-life: 0.34 h
[14]
  Vd: 1.2 L/kg
[15]
  clearance: 11 mL/min/kg
[16]
  half-life: 1.3 h
[17]
  Vd: 1.3 L/kg

## CC(C)C1CC(=O)N(CCOc2ccc(F)c(C#N)c2)C1 (racemic)
[5]
  IC50: 1.9 µM

## CC1(C2CC(=O)N(CCOc3ccc(F)c(C#N)c3)C2)CCS(=O)(=O)CC1 (racemic)
[3]
  chromatographic logD: 2.8
[18]
  Stability: 100%

## CN1CCC(C)(C2CC(=O)N(CCOc3ccc(F)c(C#N)c3)C2)CC1.Cl (racemic)
[12]
  clearance: 24 mL/min/kg
[13]
  half-life: 1.8 h
[14]
  Vd: 3.2 L/kg
[19]
  bioavailability: 52%
[15]
  clearance: 8.6 mL/min/kg
[16]
  half-life: 3.2 h
[17]
  Vd: 2.5 L/kg
[20]
  bioavailability: 76%

## CN1C(=O)N(CCOc2ccccc2)C(=O)C1(C)C
[1]
  IC50: 20 µM

## CC1(C2CC(=O)N(CCOc3ccc(F)c(C#N)c3)C2)CCNCC1.Cl (racemic; form 2)
[2]
  solubility kinetic: 242 µM
[3]
  logD: 1.5
[7]
  fraction unbound at 4 h, 10 µM: 0.81
[9]
  IC50: > 50 µM
[10]
  Papp: < 0.3 ×10⁻⁶ cm/s
[12]
  clearance: 15 mL/min/kg
[13]
  half-life: 2.4 h
[14]
  Vd: 2 L/kg
[19]
  bioavailability: < 5%

## CC1(C2CC(=O)N(CCOc3ccc(F)c(C#N)c3)C2)CCOCC1 (racemic)
[3]
  chromatographic logD: 3.7
[4]
  IC50: 0.26 µM
[1]
  IC50: 0.16 µM

## CN1CCC(C)(C2CC(=O)N(CCOc3ccc(F)c(C#N)c3)C2)CC1 (racemic)
[2]
  solubility kinetic: > 396 µM
[7]
  fraction unbound at 4 h, 10 µM: 0.71
[8]
  fraction unbound at 4 h, 10 µM: 0.56
[9]
  IC50: > 50 µM
[10]
  Papp: 21 ×10⁻⁶ cm/s

## N#Cc1cc(OCCN2CC(c3ccccc3)CC2=O)ccc1F (racemic)
[5]
  IC50: 0.86 µM

## CC1([C@@H]2CC(=O)N(CCOc3ccc(F)c(F)c3)C2)CCS(=O)(=O)CC1
[2]
  solubility kinetic: > 450 µM
[3]
  chromatographic logD: 3.4
[7]
  fraction unbound at 4 h, 10 µM: 0.7
[9]
  IC50: > 50 µM
[10]
  Papp: 17 ×10⁻⁶ cm/s
[4]
  IC50: 0.1 µM
[1]
  IC50: 0.086 µM

## CC1(C)CCC(=O)N(CCOc2ccc(F)cc2)C1
[1]
  IC50: 10 µM

## CC1([C@H]2CC(=O)N(CCOc3ccc(F)c(C#N)c3)C2)CCS(=O)(=O)CC1
[3]
  chromatographic logD: 2.8

## C[C@]1(c2ccccc2)CC(=O)N(CCOc2ccc(F)c(C#N)c2)C1
[5]
  IC50: 1 µM

## CC(C)C1(C)CC(=O)N(CCOc2ccc(F)c(C#N)c2)C1 (racemic)
[5]
  IC50: 2 µM

## CN1CCC(C)([C@H]2CC(=O)N(CCOc3ccc(F)c(C#N)c3)C2)CC1
[3]
  chromatographic logD: 1.7

## CC1(C2CC(=O)N(CCOc3ccc(F)c(F)c3)C2)CCS(=O)(=O)CC1 (racemic)
[3]
  chromatographic logD: 3.4
[12]
  clearance: 22 mL/min/kg
[13]
  half-life: 0.35 h
[14]
  Vd: 0.63 L/kg
[19]
  bioavailability: 47%
[4]
  IC50: 0.29 µM
[1]
  IC50: 0.16 µM
